Positions of bridges follow the written chain, without caps; N, C: chain ends. Non-standard residues stand in square brackets, D forms with d. No end group written: not given here. COCH2 = acetyl group that carries the bridge; hCys = N[C@@H](CCS)C(=O)O
Tests used:
[1] = system: BaF3 cells stably expressing FGFR (avian); experiment: BaF3 cell proliferation-promoting effect, avian FGFR; type: cell-based; details: viable cells at the addition concentration (0.001 to 10 nmol/L) with largest number; 2 nights
Protocol: (§1) The FGFR phosphorylation ability of the cyclic peptide complex was evaluated using the BaF3 cell proliferation-promoting effect in which FGFR was stably expressed.
(§2) BaF3 cells stably expressing FGFR were established by introducing a vector (human: Gene Copoeia, EX-Y2820-M67, bovine: sequence of Accession No. A4IFL5 was introduced into pCDNA3.1/Hygro(+) Mammalian Expression Vector (Thermo, V87020), porcine: sequence of Accession No. A0A8D1E4H1 was introduced into pCDNA3.1/Hygro(+) Mammalian Expression Vector (Thermo, V87020), and avian: sequence of Accession No. P21804 was introduced into pCDNA3.1/Hygro(+) Mammalian Expression Vector (Thermo, V87020)) into which FGFR gene had been incorporated, into BaF3 cells using Nucleofector and performing drug selection of cells into which the FGFR gene had been introduced using hygromycin.
(§3) The evaluation of the proliferation-promoting effect of BaF3 cells in which FGFR is stably expressed was performed by the following method. […] The number of viable cells was calculated from the imaging data, and the cell proliferation-promoting effect was evaluated according to the following evaluation criteria. […]

[2] = system: BaF3 cells stably expressing FGFR (bovine); experiment: BaF3 cell proliferation-promoting effect, bovine FGFR; type: cell-based; details: viable cells at the addition concentration (0.001 to 10 nmol/L) with largest number; 2 nights
Protocol: as §1, §2, §3

[3] = system: BaF3 cells stably expressing FGFR (porcine); experiment: BaF3 cell proliferation-promoting effect, porcine FGFR; type: cell-based; details: viable cells at the addition concentration (0.001 to 10 nmol/L) with largest number; 2 nights
Protocol: as §1, §2, §3

[4] = system: BaF3 cells stably expressing FGFR (human); experiment: BaF3 cell proliferation-promoting effect, human FGFR; type: cell-based; details: viable cells at the addition concentration (0.001 to 10 nmol/L) with largest number; 2 nights
Protocol: as §1, §2, §3

[5] = Alkali treatment stability of cyclic peptide (LC); type: physicochemical; details: 0.5 mol/L sodium hydroxide aqueous solution added, room temperature, 3 hours
Protocol: In addition, the stability of the cyclic peptide (SEQ ID NO: 335) containing a cysteine residue in the cyclized portion and the cyclic peptide (SEQ ID NO: 327) containing a homocysteine residue in the cyclized portion was compared under the following alkali treatment, which is a more severe condition.
The alkali treatment was performed by the following method. 25 μL of a 0.2 mg/mL cyclic peptide aqueous solution was prepared, 58.8 μL of a 0.5 mol/L sodium hydroxide aqueous solution was added to the aqueous solution, and the mixture was incubated at room temperature for 3 hours to obtain an aqueous solution of the cyclic peptide alkali-treated. The total area of all the peaks in LC/MS of the cyclic peptide before the alkali treatment was set to 100%, and the proportion of the total area of all the peaks in LC/MS of the aqueous solution of the cyclic peptide alkali-treated was determined to calculate the residual rate of the cyclic peptide.
The LC conditions used for the evaluation of molecular stability are the same as those in the measurement of the above-described cyclic peptide treated with a reducing agent.

[6] = system: hMSC-Human Mesenchymal Stem Cells; experiment: Effect of maintaining MSC undifferentiated potency (gene expression); type: cell-based
Protocol: The effect of maintaining mesenchymal stem cell (MSC) undifferentiated potency of the cyclic peptide complex was evaluated.
MSC was prepared in the same manner as in Example 7.
The evaluation of the effect of maintaining the MSC undifferentiated potency was performed by the following method. First, a culture medium (hereinafter, referred to as a custom culture medium) in which bFGF was removed from PRIME-XV MSC Expansion XSFM (FUJIFILM Irvine Scientific, Inc., 91149) was prepared. Next, Prime-XV Human Fibronectin (FUJIFILM Irvine Scientific, Inc., 31002) was dissolved in PBS (Fujifilm Wako Pure Chemical Corporation, 164-23551), 2 μg/cm^2 of the solution was added to a 12-well plate used for proliferation, and the 12-well plate was allowed to stand at room temperature for 3 hours to coat the 12-well plate with fibronectin. Thereafter, the MSCs subjected to the subculture were peeled using Tryple Express (Thermo, 12604-013), washed once with a custom culture medium, suspended in a custom culture medium in which a cyclic peptide complex or bFGF (R&D Systems, 3718-GMP) was diluted to final concentrations of 10 nmol/L and 1 nmol/L, and seeded on a 12-well plate coated with fibronectin. In this case, conditions in which the cyclic peptide complex and bFGF were not added as a negative control were prepared. After culturing at 37° C. (5% CO2) for 2 nights, the culture medium was replaced by removing the supernatant of the culture medium and adding the same amount of a culture medium prepared to have the same composition as the removed culture medium. After further culturing at 37° C. (5% CO2) for 2 nights, RNA was extracted using an RNeasy Plus Mini Kit (Qiagen, 74136) according to the manufacturer's protocol. […] The expression level of each gene was normalized by setting the expression level of the well to which 1 nmol/L bFGF was added to 1.

[7] = 1 nmol/L bFGF versus negative control

| Substance | Evaluation result of cell proliferative properties Avian [1] | Evaluation result of cell proliferative properties Bovine [2] | Evaluation result of cell proliferative properties Porcine [3] | Evaluation result of cell proliferative properties Human [4] | residual rate of the cyclic peptide [5] [%] | further results |
| --- | --- | --- | --- | --- | --- | --- |
| 343 (ACVWTFDRHAQEISQALHKVGSGSGSSGSGSSGSSACVWTFDRHAQEISQALHKV; also: cyclic peptide, ring type and places not given here) [compound 343] | B (The number of viable cells is 200 cells/well or more and less than 400 cells/well.) | A (The number of viable cells is 400 cells/well or more.) | B (The number of viable cells is 200 cells/well or more and less than 400 cells/well.) | C (The number of viable cells is 100 cells/well or more and less than 200 cells/well.) |  |  |
| 344 (ACVWTFDRHAQEISQALHKVACVWTFDRHAQEISQALHKV; also: cyclic peptide, ring type and places not given here) [compound 344] | B (The number of viable cells is 200 cells/well or more and less than 400 cells/well.) | A (The number of viable cells is 400 cells/well or more.) | B (The number of viable cells is 200 cells/well or more and less than 400 cells/well.) | B (The number of viable cells is 200 cells/well or more and less than 400 cells/well.) |  |  |
| A-(C)-VWTFDRHAQEISQALH-(K(acetyl))-VKKK (ACVWTFDRHAQEISQALHK(COCH2)VKKK; thioether 2-19 (inferred)) [SEQ ID NO: 335] |  |  |  |  | 15 |  |
| A-(Hcy)-VWTFDRHAQEISQALH-(K(acetyl))-VKKK (A[hCys]VWTFDRHAQEISQALHK(COCH2)VKKK; thioether 2-19) [SEQ ID NO: 327] |  |  |  |  | 28 |  |
| bFGF: basic fibroblast growth factor (R&D Systems, 3718-GMP), growth factor used as comparison |  |  |  |  |  | expression level of Nanog [6, 7]: did not change substantially; expression level of Oct4 [6, 7]: did not change substantially; expression level of Sox2 ([6]; cyclic peptide complex 10 nmol/L, bFGF 1 nmol/L, normalized to 1 nmol/L bFGF = 1, FIG. 4): changed |
